Test results: ChEMBL document CHEMBL4507270 (2021)

How the values were obtained:
[1] = molecular target: Serine/threonine-protein kinase LATS1 (Homo sapiens) (UniProt O95835)
[2] = molecular target: Uncharacterized serine/threonine-protein kinase SBK3 (Homo sapiens) (UniProt P0C264)
[3] = molecular target: cAMP-dependent protein kinase catalytic subunit beta (Homo sapiens) (UniProt P22694)
[4] = test system: Mast/stem cell growth factor receptor Kit (Homo sapiens), P10721 [V559D,T670I]
[5] = molecular target: Serine/threonine-protein kinase Nek6 (Homo sapiens) (UniProt Q9HC98)
[6] = molecular target: Inhibitor of nuclear factor kappa-B kinase subunit alpha (Homo sapiens) (UniProt O15111)
[7] = molecular target: Serine/threonine-protein kinase 36 (Homo sapiens) (UniProt Q9NRP7)
[8] = molecular target: Serine/threonine-protein kinase/endoribonuclease IRE1 (Homo sapiens) (UniProt O75460)
[9] = molecular target: Histamine H2 receptor (Homo sapiens) (UniProt P25021); conditions: Compound concentration 10.0 uM
[10] = molecular target: Tyrosine-protein kinase FRK (Homo sapiens) (UniProt P42685)
[11] = molecular target: Calcium/calmodulin-dependent protein kinase type 1B (Homo sapiens) (UniProt Q6P2M8)
[12] = molecular target: Casein kinase I isoform gamma-3 (Homo sapiens) (UniProt Q9Y6M4)
[13] = molecular target: Mitogen-activated protein kinase kinase kinase 11 (Homo sapiens) (UniProt Q16584)
[14] = molecular target: Activin receptor type-2B (Homo sapiens) (UniProt Q13705)
[15] = molecular target: Serine/threonine-protein kinase DCLK2 (Homo sapiens) (UniProt Q8N568)
[16] = molecular target: Protein kinase C eta type (Homo sapiens) (UniProt P24723)
[17] = molecular target: Serine/threonine-protein kinase NLK (Homo sapiens) (UniProt Q9UBE8)
[18] = molecular target: Ribosomal protein S6 kinase alpha-1 (Homo sapiens) (UniProt Q15418)
[19] = molecular target: Fibroblast growth factor receptor 1 (Homo sapiens, UniProt P11362)
[20] = molecular target: Serine/threonine-protein kinase Nek2 (Homo sapiens) (UniProt P51955)
[21] = molecular target: Serine/threonine-protein kinase BRSK1 (Homo sapiens) (UniProt Q8TDC3)
[22] = molecular target: Bone morphogenetic protein receptor type-2 (Homo sapiens) (UniProt Q13873)
[23] = molecular target: Sodium-dependent dopamine transporter (Homo sapiens) (UniProt Q01959); conditions: Compound concentration 10.0 uM
[24] = molecular target: Serine/threonine-protein kinase 17A (Homo sapiens) (UniProt Q9UEE5)
[25] = molecular target: Serine/threonine-protein kinase LATS2 (Homo sapiens) (UniProt Q9NRM7)
[26] = molecular target: Dual specificity protein kinase CLK1 (Homo sapiens) (UniProt P49759)
[27] = molecular target: Fibroblast growth factor receptor 4 (Homo sapiens) (UniProt P22455)
[28] = molecular target: Serine/threonine-protein kinase MARK1 (Homo sapiens) (UniProt Q9P0L2)
[29] = GPCRScan assay: inhibition of GABA/PBR; parameters: species or system Rattus norvegicus; radioligand conc. used [nm] 0.3 – 2.0, parental cells brain tissue
[30] = molecular target: Dual specificity protein kinase TTK (Homo sapiens) (UniProt P33981)
[31] = test system: Tyrosine-protein kinase ABL1 (Homo sapiens), P00519 [H396P]
[32] = molecular target: Serine/threonine-protein kinase MRCK gamma (Homo sapiens) (UniProt Q6DT37)
[33] = molecular target: Bone morphogenetic protein receptor type-1B (Homo sapiens) (UniProt O00238)
[34] = molecular target: Myosin-IIIa (Homo sapiens) (UniProt Q8NEV4)
[35] = molecular target: Ribosomal protein S6 kinase beta-1 (Homo sapiens) (UniProt P23443)
[36] = test system: Leucine-rich repeat serine/threonine-protein kinase 2 (Homo sapiens), Q5S007 [G2019S]
[37] = molecular target: NT-3 growth factor receptor (Homo sapiens) (UniProt Q16288)
[38] = molecular target: Cyclin-dependent kinase 14 (Homo sapiens) (UniProt O94921)
[39] = molecular target: MAP kinase-interacting serine/threonine-protein kinase 1 (Homo sapiens) (UniProt Q9BUB5)
[40] = molecular target: Dual specificity mitogen-activated protein kinase kinase 3 (Homo sapiens) (UniProt P46734)
[41] = molecular target: Calcium/calmodulin-dependent protein kinase type IV (Homo sapiens) (UniProt Q16566)
[42] = molecular target: Mitogen-activated protein kinase 15 (Homo sapiens) (UniProt Q8TD08)
[43] = molecular target: Serine/threonine-protein kinase STK11 (Homo sapiens) (UniProt Q15831)
[44] = molecular target: Muscarinic acetylcholine receptor M5 (Homo sapiens) (UniProt P08912); conditions: Compound concentration 10.0 uM
[45] = molecular target: MAP kinase-interacting serine/threonine-protein kinase 2 (Homo sapiens) (UniProt Q9HBH9)
[46] = Compound concentration 1000.0 nM
[47] = Compound concentration 100.0 nM

Chain of Bone morphogenetic protein receptor type-2 (Homo sapiens) (Q13873 whole entry): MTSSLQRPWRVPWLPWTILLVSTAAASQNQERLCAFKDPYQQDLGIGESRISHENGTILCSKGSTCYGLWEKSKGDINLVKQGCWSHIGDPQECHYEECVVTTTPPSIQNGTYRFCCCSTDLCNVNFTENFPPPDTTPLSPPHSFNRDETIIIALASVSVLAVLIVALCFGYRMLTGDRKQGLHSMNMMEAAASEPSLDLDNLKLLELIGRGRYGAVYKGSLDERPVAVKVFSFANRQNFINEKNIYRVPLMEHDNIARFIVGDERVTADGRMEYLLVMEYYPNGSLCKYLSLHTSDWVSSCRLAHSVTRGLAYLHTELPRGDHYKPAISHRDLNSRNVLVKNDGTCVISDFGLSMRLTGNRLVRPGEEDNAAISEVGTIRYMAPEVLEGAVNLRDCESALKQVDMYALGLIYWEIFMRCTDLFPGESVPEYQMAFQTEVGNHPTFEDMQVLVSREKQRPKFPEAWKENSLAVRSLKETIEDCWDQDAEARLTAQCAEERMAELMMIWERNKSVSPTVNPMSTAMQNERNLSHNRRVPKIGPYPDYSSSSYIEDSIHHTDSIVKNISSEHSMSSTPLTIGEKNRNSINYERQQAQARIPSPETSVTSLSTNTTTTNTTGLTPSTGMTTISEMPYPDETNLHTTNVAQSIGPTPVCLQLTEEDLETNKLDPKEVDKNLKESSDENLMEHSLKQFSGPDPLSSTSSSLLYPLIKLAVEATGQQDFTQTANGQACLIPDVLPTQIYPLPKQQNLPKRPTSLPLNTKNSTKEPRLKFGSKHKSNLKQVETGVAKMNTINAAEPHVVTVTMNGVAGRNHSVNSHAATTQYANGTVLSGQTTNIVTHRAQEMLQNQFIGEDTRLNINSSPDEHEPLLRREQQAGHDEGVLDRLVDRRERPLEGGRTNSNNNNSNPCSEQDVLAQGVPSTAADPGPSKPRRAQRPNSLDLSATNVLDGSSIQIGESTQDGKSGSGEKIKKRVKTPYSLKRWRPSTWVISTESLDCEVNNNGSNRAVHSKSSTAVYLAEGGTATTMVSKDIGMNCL
Chain of Protein kinase C eta type (Homo sapiens) (P24723 whole entry): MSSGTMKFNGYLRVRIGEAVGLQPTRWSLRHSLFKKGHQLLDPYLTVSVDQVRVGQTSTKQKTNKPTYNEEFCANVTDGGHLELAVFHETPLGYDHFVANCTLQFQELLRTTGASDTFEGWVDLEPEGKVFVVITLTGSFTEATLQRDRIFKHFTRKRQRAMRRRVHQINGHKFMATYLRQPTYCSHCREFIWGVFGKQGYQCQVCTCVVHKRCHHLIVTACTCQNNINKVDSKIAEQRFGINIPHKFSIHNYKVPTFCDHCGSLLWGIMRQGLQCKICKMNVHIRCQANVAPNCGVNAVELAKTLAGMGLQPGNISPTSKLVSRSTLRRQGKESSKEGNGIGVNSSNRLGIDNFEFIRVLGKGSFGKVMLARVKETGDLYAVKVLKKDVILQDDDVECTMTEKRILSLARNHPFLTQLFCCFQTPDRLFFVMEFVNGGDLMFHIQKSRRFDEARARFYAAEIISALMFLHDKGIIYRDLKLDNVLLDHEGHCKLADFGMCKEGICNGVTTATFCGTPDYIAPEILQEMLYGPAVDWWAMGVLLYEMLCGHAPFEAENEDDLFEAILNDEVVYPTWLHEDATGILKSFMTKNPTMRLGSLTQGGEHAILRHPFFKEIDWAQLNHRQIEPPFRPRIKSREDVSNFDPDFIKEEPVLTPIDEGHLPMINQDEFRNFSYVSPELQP
Chain of Cyclin-dependent kinase 14 (Homo sapiens) (O94921 whole entry): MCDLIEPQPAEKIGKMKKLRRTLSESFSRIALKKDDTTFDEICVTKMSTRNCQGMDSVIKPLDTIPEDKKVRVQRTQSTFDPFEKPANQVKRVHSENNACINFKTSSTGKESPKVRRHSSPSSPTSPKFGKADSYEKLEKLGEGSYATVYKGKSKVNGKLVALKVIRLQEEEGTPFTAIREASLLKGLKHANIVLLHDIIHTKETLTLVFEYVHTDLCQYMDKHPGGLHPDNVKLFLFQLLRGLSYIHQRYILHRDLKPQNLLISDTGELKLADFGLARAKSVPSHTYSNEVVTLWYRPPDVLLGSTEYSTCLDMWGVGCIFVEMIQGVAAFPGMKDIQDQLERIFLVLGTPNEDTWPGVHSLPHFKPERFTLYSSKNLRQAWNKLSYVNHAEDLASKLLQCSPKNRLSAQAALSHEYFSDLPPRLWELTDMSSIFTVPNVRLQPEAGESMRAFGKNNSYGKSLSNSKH
Chain of Serine/threonine-protein kinase Nek6 (Homo sapiens) (Q9HC98 whole entry): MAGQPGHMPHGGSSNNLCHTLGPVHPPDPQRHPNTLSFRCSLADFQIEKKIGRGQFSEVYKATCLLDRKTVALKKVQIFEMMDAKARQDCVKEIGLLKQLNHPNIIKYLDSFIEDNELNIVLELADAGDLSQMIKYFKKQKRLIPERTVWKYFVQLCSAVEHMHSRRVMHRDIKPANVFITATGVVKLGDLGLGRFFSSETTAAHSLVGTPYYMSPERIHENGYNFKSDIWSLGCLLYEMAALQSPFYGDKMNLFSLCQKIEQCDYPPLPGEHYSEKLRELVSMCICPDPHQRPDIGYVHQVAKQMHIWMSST
Chain of Serine/threonine-protein kinase STK11 (Homo sapiens) (Q15831 whole entry): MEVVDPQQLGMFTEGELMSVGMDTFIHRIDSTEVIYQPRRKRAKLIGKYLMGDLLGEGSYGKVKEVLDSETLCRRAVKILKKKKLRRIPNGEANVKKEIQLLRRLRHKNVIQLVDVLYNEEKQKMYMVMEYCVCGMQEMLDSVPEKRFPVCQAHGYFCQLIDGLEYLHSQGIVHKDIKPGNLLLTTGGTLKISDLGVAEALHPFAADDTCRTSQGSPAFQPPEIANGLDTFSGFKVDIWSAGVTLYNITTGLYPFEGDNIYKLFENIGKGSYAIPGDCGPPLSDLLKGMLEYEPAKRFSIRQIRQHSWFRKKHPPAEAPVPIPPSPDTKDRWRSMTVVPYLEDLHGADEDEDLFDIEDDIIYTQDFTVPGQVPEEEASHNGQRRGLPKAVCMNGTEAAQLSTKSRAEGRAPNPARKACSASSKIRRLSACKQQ
Chain of Serine/threonine-protein kinase BRSK1 (Homo sapiens) (Q8TDC3 whole entry): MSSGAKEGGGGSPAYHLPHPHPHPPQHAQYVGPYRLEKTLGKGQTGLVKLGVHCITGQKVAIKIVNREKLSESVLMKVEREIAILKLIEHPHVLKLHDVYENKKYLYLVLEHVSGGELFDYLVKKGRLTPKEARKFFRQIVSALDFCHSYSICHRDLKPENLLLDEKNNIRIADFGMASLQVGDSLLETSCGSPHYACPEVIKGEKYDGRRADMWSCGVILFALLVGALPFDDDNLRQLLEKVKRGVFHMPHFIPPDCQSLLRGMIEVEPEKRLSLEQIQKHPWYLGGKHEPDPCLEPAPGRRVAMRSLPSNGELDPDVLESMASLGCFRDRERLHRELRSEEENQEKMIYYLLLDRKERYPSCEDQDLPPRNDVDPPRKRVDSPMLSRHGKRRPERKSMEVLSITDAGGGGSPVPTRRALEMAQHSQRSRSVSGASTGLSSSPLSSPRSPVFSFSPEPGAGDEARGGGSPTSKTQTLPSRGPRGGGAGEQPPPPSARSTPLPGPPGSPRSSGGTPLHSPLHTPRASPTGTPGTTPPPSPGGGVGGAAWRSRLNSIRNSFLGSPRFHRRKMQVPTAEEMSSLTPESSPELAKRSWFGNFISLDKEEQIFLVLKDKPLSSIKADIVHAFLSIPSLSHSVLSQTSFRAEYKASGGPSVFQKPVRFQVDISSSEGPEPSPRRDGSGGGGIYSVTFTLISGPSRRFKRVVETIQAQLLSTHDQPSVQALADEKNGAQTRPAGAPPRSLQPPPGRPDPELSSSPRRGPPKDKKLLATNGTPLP
Chain of Mitogen-activated protein kinase kinase kinase 11 (Homo sapiens) (Q16584 whole entry, looked up): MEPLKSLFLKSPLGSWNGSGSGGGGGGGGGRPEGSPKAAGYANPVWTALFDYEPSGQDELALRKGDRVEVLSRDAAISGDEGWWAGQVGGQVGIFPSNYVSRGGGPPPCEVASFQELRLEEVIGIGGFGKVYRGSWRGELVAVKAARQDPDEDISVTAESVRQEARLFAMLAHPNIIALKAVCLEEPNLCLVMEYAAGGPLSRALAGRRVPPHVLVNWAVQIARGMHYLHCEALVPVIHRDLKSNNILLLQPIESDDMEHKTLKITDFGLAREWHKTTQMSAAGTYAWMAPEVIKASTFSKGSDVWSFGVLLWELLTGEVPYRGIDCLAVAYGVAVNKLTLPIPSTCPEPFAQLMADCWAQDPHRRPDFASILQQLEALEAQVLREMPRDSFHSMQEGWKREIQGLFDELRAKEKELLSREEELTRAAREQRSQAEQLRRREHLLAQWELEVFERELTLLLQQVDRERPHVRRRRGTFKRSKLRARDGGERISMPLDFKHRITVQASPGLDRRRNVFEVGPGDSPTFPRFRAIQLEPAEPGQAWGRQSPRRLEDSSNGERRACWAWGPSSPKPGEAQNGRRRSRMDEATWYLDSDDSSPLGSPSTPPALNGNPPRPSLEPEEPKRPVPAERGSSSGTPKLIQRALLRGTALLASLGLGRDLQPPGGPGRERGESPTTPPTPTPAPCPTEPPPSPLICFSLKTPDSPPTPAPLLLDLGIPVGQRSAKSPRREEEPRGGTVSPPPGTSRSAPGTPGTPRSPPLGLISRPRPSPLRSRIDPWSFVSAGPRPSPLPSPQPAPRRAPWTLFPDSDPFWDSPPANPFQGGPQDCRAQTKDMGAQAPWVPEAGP
Chain of Dual specificity mitogen-activated protein kinase kinase 3 (Homo sapiens) (P46734 whole entry): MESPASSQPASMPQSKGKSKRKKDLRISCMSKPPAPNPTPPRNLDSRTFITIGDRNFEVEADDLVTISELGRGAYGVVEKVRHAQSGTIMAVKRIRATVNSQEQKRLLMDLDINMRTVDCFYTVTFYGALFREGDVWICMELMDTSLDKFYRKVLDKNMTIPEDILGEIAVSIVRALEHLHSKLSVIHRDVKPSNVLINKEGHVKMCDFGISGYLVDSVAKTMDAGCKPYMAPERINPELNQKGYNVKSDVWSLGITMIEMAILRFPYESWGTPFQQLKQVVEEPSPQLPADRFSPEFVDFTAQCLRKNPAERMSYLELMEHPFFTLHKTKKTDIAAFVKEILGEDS

## Cc1cc(NC(=O)c2cccc(S(F)(F)(F)(F)F)c2)cc(-n2ccn3nc(-c4cccnc4)cc23)c1 [BAY-309]
[1]; [46]
  residual activity: 100%
[2]; [46]
  residual activity: 100%
[3]; [46]
  residual activity: 100%
[4]; [46]
  residual activity: 91.3%
[5]; [46]
  residual activity: 97%
[6]; [46]
  residual activity: 71.1%
[7]; [46]
  residual activity: 93.1%
[8]; [46]
  residual activity: 99.2%
[9]
  inhibition: 46.1%
[10]; [46]
  residual activity: 100%
[11]; [46]
  residual activity: 100%
[12]; [46]
  residual activity: 100%
[13]; [46]
  residual activity: 100%
[14]; [46]
  residual activity: 100%
[15]; [46]
  residual activity: 100%
[16]; [46]
  residual activity: 100%
[17]; [46]
  residual activity: 100%
[18]; [46]
  residual activity: 91.7%
[19]; [46]
  residual activity: 100%
[20]; [46]
  residual activity: 90.8%
[21]; [46]
  residual activity: 100%
[22]; [46]
  residual activity: 59.3%
[23]
  inhibition: 38.1%
[24]; [46]
  residual activity: 100%
[25]; [46]
  residual activity: 100%
[26]; [46]
  residual activity: 100%
[27]; [46]
  residual activity: 100%
[28]; [46]
  residual activity: 100%
[29]
  Ki: 10.9 nM
  pKi: 8.03
[30]; [46]
  residual activity: 44.8%
[31]; [46]
  residual activity: 100%
[32]; [46]
  residual activity: 100%
[33]; [46]
  residual activity: 100%
[34]; [46]
  residual activity: 100%
[35]; [46]
  residual activity: 66.2%
[36]; [46]
  residual activity: 81.3%
[37]; [46]
  residual activity: 27.2%
[38]; [46]
  residual activity: 93.8%
[39]; [46]
  residual activity: 100%
[40]; [46]
  residual activity: 62.1%
[41]; [46]
  residual activity: 80.5%
[42]; [46]
  residual activity: 100%
[43]; [46]
  residual activity: 100%
[44]
  inhibition: 8.74%
[45]; [46]
  residual activity: 85.2%

## Cc1cc(C)c(-n2ccn3nc(-c4cccnc4)cc23)cc1NC(=O)c1cc(C#N)cc(S(F)(F)(F)(F)F)c1 [BAY-826]
[1]; [47]
  residual activity: 83.9%
[2]; [47]
  residual activity: 100%
[3]; [47]
  residual activity: 100%
[4]; [47]
  residual activity: 67.9%
[5]; [47]
  residual activity: 93.9%
[6]; [47]
  residual activity: 100%
[7]; [47]
  residual activity: 80.8%
[8]; [47]
  residual activity: 68.3%
[9]
  inhibition: 25.6%
[10]; [47]
  residual activity: 59.1%
[11]; [47]
  residual activity: 83.6%
[12]; [47]
  residual activity: 93.7%
[13]; [47]
  residual activity: 100%
[14]; [47]
  residual activity: 88.7%
[15]; [47]
  residual activity: 90.6%
[16]; [47]
  residual activity: 99.5%
[17]; [47]
  residual activity: 100%
[18]; [47]
  residual activity: 97%
[19]; [47]
  residual activity: 85.5%
[20]; [47]
  residual activity: 98.6%
[21]; [47]
  residual activity: 84%
[22]; [47]
  residual activity: 89.4%
[23]
  inhibition: 10.7%
[24]; [47]
  residual activity: 100%
[25]; [47]
  residual activity: 73.2%
[26]; [47]
  residual activity: 96.2%
[27]; [47]
  residual activity: 99.4%
[28]; [47]
  residual activity: 96.7%
[29]
  Ki: 217 nM
[30]; [47]
  residual activity: 72%
[31]; [47]
  residual activity: 87.5%
[32]; [47]
  residual activity: 88.8%
[33]; [47]
  residual activity: 72.3%
[34]; [47]
  residual activity: 94.9%
[35]; [47]
  residual activity: 93%
[36]; [47]
  residual activity: 73.9%
[37]; [47]
  residual activity: 60.4%
[38]; [47]
  residual activity: 100%
[39]; [47]
  residual activity: 83.8%
[40]; [47]
  residual activity: 81.9%
[41]; [47]
  residual activity: 93.9%
[42]; [47]
  residual activity: 94.1%
[43]; [47]
  residual activity: 75.9%
[44]
  inhibition: 16.1%
[45]; [47]
  residual activity: 95%
